Measurements as given in US20220144838A1, “Compounds as Inhibitors of Macrophage Migration Inhibitory Factor” (NANJING IMMUNOPHAGE BIOTECH CO., LTD., priority 2019, published 2022).
Read-outs that look alike come from different tables or passages of the source.

Biological target: T1, MIF (Homo sapiens, UniProt P14174)
T1 sequence (P14174 2-115 limits assumed): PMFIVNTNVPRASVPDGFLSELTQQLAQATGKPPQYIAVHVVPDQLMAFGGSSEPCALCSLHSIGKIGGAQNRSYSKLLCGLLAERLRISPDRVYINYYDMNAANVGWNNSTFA
Test: MIF tautomerase assay using pHPP as substrate
Format: biochemical
Conditions: mean of multiple test results
Protocol: Tautomerase Assay Using pHPP as Substrate
This assay measured MIF's tautomerase activity in a cell-free system and was based on the determination of initial rates of the MIF-catalyzed conversion of the ketonic into the enolic tautomer of pHPP. This was achieved by spectrophotometric quantification of the complex between borate and the product of the reaction (enolic pHPP). The substrate was prepared by conversion of the enolic pHPP into its ketonic form. To achieve this, 0.5 M pHPP in methanol was diluted 10-fold with 50 mM sodium acetate buffer at pH 6.0, and then the suspension was shaken for 24 h at room temperature in darkness, and finally stored at 4° C. for not more than 1 week, with 5 min sonication being recommended before use.
Assays were performed in small-volume clear-bottom black 96 or 384-well polystyrene plates (Greiner Bio-One). First, 2 μL of the enzyme solution containing 6 nM of MIF in DPBS, 0.025% w/v BSA, and 300 μM CHAPS was dispensed onto sample and negative control wells using Multidrop Combi with metallic tip cassettes (Thermo Fisher Scientific) previously treated with Sigmacote. Then, 2 μL of the same buffer without MIF was dispensed onto positive control wells. The reaction was started by addition of the following to all wells: 2 μL of substrate solution containing 3 mM ketonic pHPP in 200 mM boric acid, 25 mM sodium phosphate, 0.025% w/v BSA, and 300 μM CHAPS at pH 6.0. In order to remove bubbles, the plate was centrifuged in an Allegra 25R centrifuge (Beckman Coulter, Inc., Brea, Calif.) at 1000 rpm for 2 min at room temperature. Then, the plate was read in an EnVision. Final concentrations of enzyme and substrate were 3 nM and 1.5 mM, respectively. Initial rates were calculated for each well as the slope of the absorbance progress curve.
All exemplified compounds (Examples 1-230) were tested in the MIF tautomerase assay or a similar assay described above. The data mentioned below represents a mean pIC50 value of multiple test results. It is understood that the data illustrated below may have reasonable variation depending on the specific conditions and procedures used by the person conducting the testing.

[1] = inhibition of the MIF enzyme in vitro, read-out: Tautomerase Inhibition pIC50 (converted)

Compound	IC50 [1] [nM]	IC50 (FIGS. 1-5, read-out: pIC50 MIF tautomerase activity (converted)) [nM]
O=C(O)Cn1cnc2c(N3CCc4ccccc43)nc(N3CCN(c4ccc(O)cc4)CC3)nc21 [Example 31, 2-(2-(4-(4-hydroxyphenyl)piperazin-1-yl)-6-(indolin-1-yl)-9H-purin-9-yl)acetic acid]	100 to 977	–
NC(=O)Cn1cnc2c(N3CCc4ccccc43)nc(N3CCN(c4ccc(O)cc4)CC3)nc21 [Example 32, 2-(2-(4-(4-hydroxyphenyl)piperazin-1-yl)-6-(indolin-1-yl)-9H-purin-9-yl)acetamide]	1000 to 9770	–
CCOC(=O)c1nn(-c2nc(N3CCN(c4ccc(O)cc4)CC3)nc3c2ncn3CC(=O)O)c2ccccc12 [Example 33, 2-(6-(3-(ethoxycarbonyl)-1H-indazol-1-yl)-2-(4-(4-hydroxyphenyl)piperazin-1-yl)-9H-purin-9-yl)acetic acid]	10 to 97.7	–
O=C(O)Cn1cnc2c(-c3cccc4[nH]ncc34)nc(N3CCN(c4ccc(O)cc4)CC3)nc21 [Example 34, 2-(2-(4-(4-hydroxyphenyl)piperazin-1-yl)-6-(1H-indazol-4-yl)-9H-purin-9-yl)acetic acid]	1000 to 9770	–
Cc1nc(N2CCN(c3ccc(O)cc3)CC2)nc2c1ncn2-c1cccc(O)c1Cl [Example 37, 2-chloro-3-(2-(4-(4-hydroxyphenyl)piperazin-1-yl)-6-methyl-9H-purin-9-yl)phenol]	1000 to 9770	–
Cc1cncc(-n2cnc3c(C)nc(N4CCN(c5ccc(O)cc5)CC4)nc32)c1 [Example 38, 4-(4-(6-methyl-9-(5-methylpyridin-3-yl)-9H-purin-2-yl)piperazin-1-yl)phenol]	1000 to 9770	–
O=C(O)Cn1cnc2c(-n3cnc4ccccc43)nc(N3CCN(c4ccc(O)cc4)CC3)nc21 [Example 41, 2-(6-(1H-benzo[d]imidazol-1-yl)-2-(4-(4-hydroxyphenyl)piperazin-1-yl)-9H-purin-9-yl)acetic acid]	10 to 97.7	–
Cc1nc(N2CCN(c3ccc(O)cc3)CC2)nc2c1ncn2-c1ccccc1 [Example 43, 4-(4-(6-methyl-9-phenyl-9H-purin-2-yl)piperazin-1-yl)phenol]	100 to 977	–
CCOC(=O)Cn1cnc2c(-n3ncc4ccccc43)nc(N3CCN(c4ccc(O)cc4)CC3)nc21 [Example 44, ethyl 2-(2-(4-(4-hydroxyphenyl)piperazin-1-yl)-6-(1H-indazol-1-yl)-9H-purin-9-yl)acetate]	100 to 977	–
O=C(O)Cn1cnc2c(-n3ncc4ccccc43)nc(N3CCN(c4ccc(O)cc4)CC3)nc21 [Example 45, 2-(2-(4-(4-hydroxyphenyl)piperazin-1-yl)-6-(1H-indazol-1-yl)-9H-purin-9-yl)acetic acid]	10 to 97.7	–
O=C(O)Cn1cnc2nc(N3CCN(c4ccc(O)cc4)CC3)nc(-n3ncc4ccccc43)c21 [Example 46, 2-(2-(4-(4-hydroxyphenyl)piperazin-1-yl)-6-(1H-indazol-1-yl)-7H-purin-7-yl)acetic acid]	100 to 977	–
O=C(O)Cn1cnc2c(N3N=CC4C=CC=CC43)nc(N3CCN(c4ccccc4)CC3)nc21 (centres unmarked) [Example 48, 2-(6-(3a,7a-dihydro-1H-indazol-1-yl)-2-(4-phenylpiperazin-1-yl)-9H-purin-9-yl)acetic acid]	100 to 977	–
O=C(O)Cn1cnc2c(N3N=CC4C=CC=CC43)nc(N3CCN(c4ccncc4)CC3)nc21 (centres unmarked) [Example 49, 2-(6-(3a,7a-dihydro-1H-indazol-1-yl)-2-(4-(pyridin-4-yl)piperazin-1-yl)-9H-purin-9-yl)acetic acid]	> 10000	–
COc1ccc2cnn(-c3nc(N4CCN(c5ccc(O)cc5)CC4)nc4c3ncn4CC(=O)O)c2c1 [Example 50, 2-(2-(4-(4-hydroxyphenyl)piperazin-1-yl)-6-(6-methoxy-1H-indazol-1-yl)-9H-purin-9-yl)acetic acid]	1000 to 9770	–
N#Cc1ccc2c(cnn2-c2nc(N3CCN(c4ccc(O)cc4)CC3)nc3c2ncn3CC(=O)O)c1 [Example 52, 2-(6-(5-cyano-1H-indazol-1-yl)-2-(4-(4-hydroxyphenyl)piperazin-1-yl)-9H-purin-9-yl)acetic acid]	10 to 97.7	–
CCS(=O)(=O)NC(=O)Cn1cnc2c(-n3ncc4ccccc43)nc(N3CCN(c4ccc(O)cc4)CC3)nc21 [Example 53, N-(ethylsulfonyl)-2-(2-(4-(4-hydroxyphenyl)piperazin-1-yl)-6-(1H-indazol-1-yl)-9H-purin-9-yl)acetamide]	10 to 97.7	–
O=C(Cn1cnc2c(-n3ncc4ccccc43)nc(N3CCN(c4ccc(O)cc4)CC3)nc21)NS(=O)(=O)C1CC1 [Example 55, N-(cyclopropylsulfonyl)-2-(2-(4-(4-hydroxyphenyl)piperazin-1-yl)-6-(1H-indazol-1-yl)-9H-purin-9-yl)acetamide]	10 to 97.7	≤ 100
CS(=O)(=O)NC(=O)Cn1cnc2c(-n3ncc4ccccc43)nc(N3CCN(c4ccc(O)cc4)CC3)nc21 [Example 57, 2-(2-(4-(4-hydroxyphenyl)piperazin-1-yl)-6-(1H-indazol-1-yl)-9H-purin-9-yl)-N-(methylsulfonyl)acetamide]	10 to 97.7	–
COc1cccc(-n2cnc3c(C)nc(N4CCN(c5ccc(O)cc5)CC4)nc32)c1Cl [Example 61, 4-(4-(9-(2-chloro-3-methoxyphenyl)-6-methyl-9H-purin-2-yl)piperazin-1-yl)phenol]	1000 to 9770	–
Cc1nc(N2CCN(c3ccc(O)cc3)CC2)nc2c1ncn2-c1cc(Cl)cnn1 [Example 63, 4-(4-(9-(5-chloropyridazin-3-yl)-6-methyl-9H-purin-2-yl)piperazin-1-yl)phenol]	> 10000	–

Now from value to compound:

IC50 [1] [nM]	IC50 (FIGS. 1-5, read-out: pIC50 MIF tautomerase activity (converted)) [nM]	Compound
100 to 977	–	O=C(O)Cn1cnc2c(-c3ccnc4[nH]ccc34)nc(N3CCN(c4ccc(O)cc4)CC3)nc21 [Example 35, 2-(2-(4-(4-hydroxyphenyl)piperazin-1-yl)-6-(1H-pyrrolo[2,3-b]pyridin-4-yl)-9H-purin-9-yl)acetic acid]
100 to 977	–	O=C(O)Cn1cnc2c(-n3nc(-c4cccnc4)c4ccccc43)nc(N3CCN(c4ccc(O)cc4)CC3)nc21 [Example 36, 2-(2-(4-(4-hydroxyphenyl)piperazin-1-yl)-6-(3-(pyridin-3-yl)-1H-indazol-1-yl)-9H-purin-9-yl)acetic acid]
100 to 977	–	Oc1ccc(N2CCN(c3nc(N4CCc5ccccc54)c4ncn(-c5cccnc5)c4n3)CC2)cc1 [Example 39, 4-(4-(6-(indolin-1-yl)-9-(pyridin-3-yl)-9H-purin-2-yl)piperazin-1-yl)phenol]
1000 to 9770	–	CCOC(=O)Cn1cnc2c(-n3cnc4ccccc43)nc(N3CCN(c4ccc(O)cc4)CC3)nc21 [Example 40, ethyl 2-(6-(1H-benzo[d]imidazol-1-yl)-2-(4-(4-hydroxyphenyl)piperazin-1-yl)-9H-purin-9-yl)acetate]
1000 to 9770	–	CNC(=O)Cn1cnc2c(-n3cnc4ccccc43)nc(N3CCN(c4ccc(O)cc4)CC3)nc21 [Example 42, 2-(6-(1H-benzo[d]imidazol-1-yl)-2-(4-(4-hydroxyphenyl)piperazin-1-yl)-9H-purin-9-yl)-N-methylacetamide]
100 to 977	–	NC(=O)Cn1cnc2c(-n3ncc4ccccc43)nc(N3CCN(c4ccc(O)cc4)CC3)nc21 [Example 47, 2-(2-(4-(4-hydroxyphenyl)piperazin-1-yl)-6-(1H-indazol-1-yl)-9H-purin-9-yl)acetamide]
100 to 977	–	CC(C)S(=O)(=O)NC(=O)Cn1cnc2c(-n3ncc4ccccc43)nc(N3CCN(c4ccc(O)cc4)CC3)nc21 [Example 54, 2-(2-(4-(4-hydroxyphenyl)piperazin-1-yl)-6-(1H-indazol-1-yl)-9H-purin-9-yl)-N-(isopropylsulfonyl)acetamide]
100 to 977	–	CCCS(=O)(=O)NC(=O)Cn1cnc2c(-n3ncc4ccccc43)nc(N3CCN(c4ccc(O)cc4)CC3)nc21 [Example 56, 2-(2-(4-(4-hydroxyphenyl)piperazin-1-yl)-6-(1H-indazol-1-yl)-9H-purin-9-yl)-N-(propylsulfonyl)acetamide]
1000 to 9770	–	O=C1Cc2cccnc2N1c1nc(N2CCN(c3ccc(O)cc3)CC2)nc2c1ncn2CCO [Example 58, 1-(9-(2-hydroxyethyl)-2-(4-(4-hydroxyphenyl)piperazin-1-yl)-9H-purin-6-yl)-1H-pyrrolo[2,3-b]pyridin-2(3H)-one]
100 to 977	–	Cc1nc(N2CCN(c3ccc(O)cc3)CC2)nc2c1ncn2-c1cccnc1 [Example 59, 4-(4-(6-methyl-9-(pyridin-3-yl)-9H-purin-2-yl)piperazin-1-yl)phenol]
100 to 977	–	Cc1nc(N2CCN(c3ccc(O)cc3)CC2)nc2c1ncn2-c1cccnc1O [Example 60, 3-(2-(4-(4-hydroxyphenyl)piperazin-1-yl)-6-methyl-9H-purin-9-yl)pyridin-2-ol]
